Assay results from US20110104274A1, “NOVEL COMPOSITION AND USES THEREOF, IN PARTICULAR COSMETIC USES, FOR TREATING SKIN DEHYDRATION” (COMPAGNIE GERVAIS DANONE, priority 2006, published 2011).

Key:
[1] = system: transglutaminase K (TGK) expression in normal human keratinocytes (NHEKs); test: Expression of transglutaminase K (TGK) in NHEKs (immunofluorescence related to number of nuclei); type: cell-based; conditions: for Expression of TGK (average): related to negative control
Protocol: The GLA used is the product L2378 from the company SIGMA. The 4 main forms of catechins forming green tea polyphenol are mixed in the natural proportions: EGCG, EGC, ECG and EC (respective SIGMA references E4143, E3768, E3893 and E4018).
The range of concentration of GLA tested in vitro was from 1 to 4 μg/ml and that of GTP was from 0.3 to 0.7 μg/ml.
(§1) The tests are carried out on normal human keratinocytes (NHEKs) in a monolayer. The NHEKs are sown at 10^4/well in serum-free medium (SFM) without calcium, under conditions of temperature of 37° C., CO2 of 5% and relative humidity RH>95%. The NHEKs are incubated like this for 24 hours. The medium is then removed. Then the NHEKs are incubated for 48 hours in the presence of either: • SFM (serum-free medium) with addition of gamma-linolenic acid and green tea polyphenols at a concentration of 1.25, 2.5 or 3.75 μg/mL for GLA and at a concentration of 0.5 μg/ml for GTP; • SFM (serum-free medium) without calcium, which serves as negative control; • SFM (serum-free medium) with addition of calcium (1.50 mM), which serves as positive control.
The media are removed and a second incubation is carried out in the presence of the 3 types of media.
The culture medium is removed and then rinsing with PBS is carried out. The cells are then permeabilized and fixed with absolute methanol for 10 minutes at −20° C. Then drying and nonspecific saturation with a PBS-Tween20-milk proteins mixture are carried out, followed by rinsing with PBS. The NHEK cells are labelled with an anti-TGK monoclonal antibody (Reference: TEBU 0175003), then incubated for 1 hour at room temperature and rinsed with PBS.
Detection is carried out with a GAM-FITC conjugated secondary antibody (Reference: Life Technology A 11001) and the fluorescence is measured using software (Reference: NIKKON; LICIA Software).
The nuclei are labelled and counted by the Hoechst technique. First, the medium is removed and rinsing with PBS is carried out. Hoechst labelling (Reference: bis-benzimide Sigma B1155) is then used and incubation is carried out for 1 hour at ambient temperature. This is followed by rinsing with PBS, image acquisition and quantification of fluorescence.
The results are expressed in specific fluorescence of TGK, i.e. they are related to the number of nuclei so as to be independent of the variations in growth of the cells.
The average expression of TGK corresponds to measurement of the quantity of fluorescence referred to the number of nuclei after Hoechst labelling.

[2] = system: normal human keratinocytes (NHEKs); test: Cytotoxicity test (MTT) on NHEKs, TGK study; type: cell-based; conditions: MTT labelling
Protocol: as §1
(§2) The cell viability of the NHEKs is evaluated after labelling with 3-[4,5-dimethylthiazol-2-yl]-2,5-diphenyltetrazolium bromide (MTT) (SIGMA).

[3] = system: involucrin expression in normal human keratinocytes (NHEKs); test: Expression of involucrin in NHEKs (ELISA); type: cell-based; conditions: 0 to 10 μg/mL; NHEKs of groups 1 (abdominal) and 2 (breast); high or low calcium concentration; 48 hours
Protocol: The GLA used is the product L2378 from the company SIGMA.
(§3) The NHEKs of the two groups are incubated for 48 hours in the presence of a low ([…]) or a high ([…]) concentration of calcium, and in the presence of either: • SFM (serum-free medium) with addition of 0, 1, 3 and 10 μg/mL of gamma-linolenic acid and/or of green tea extracts, in which the concentration of green tea polyphenol is approximately 88 wt. %; • SFM (serum-free medium) with addition of calcium, which serves as positive control.

[4] = system: normal human keratinocytes (NHEKs); test: Cytotoxicity test (MTT) on NHEKs, involucrin study; type: cell-based; conditions: up to 10 μg/mL, regardless of the calcium concentration
Protocol: as §3, §2

[5] = Bioavailability study: plasma/serum concentrations of catechins (EC, EGC, EGCG) after ingestion; type: in vivo, human; conditions: ingestion of 45 mg of catechins
Protocol: This study evaluates the bioavailability of the combination of catechins with GLA, and in particular the bioavailability of this combination in a yoghurt containing probiotics (see Table 1).
To evaluate this bioavailability, the plasma concentrations of GLA and of catechins are monitored at different points in time after ingestion of products 1, 2, 3 or 4.
This study is a norm-centred, randomized, open study. It was carried out with 12 female volunteers (average age 30.8 years; body mass index (BMI) on average 21.4).
During each assessment visit (V2, V3, V4), the subjects consumed a product at random (among the 4 products). […]
[…] blood samples were taken in the 6 hours following ingestion of the product. The plasma concentration of the active ingredients was measured at 6 points in time (T0, T1 h, T2 h, T3 h, T4 h, T6 h) for measuring the plasma kinetics of GLA and the catechins. […]
The plasma concentrations of catechins and specifically of epicatechin (EC), epigallocatechin (EGC), and epigallocatechin gallate (EGCG) were determined by HPLC as described by Lee et al. (Lee M J, Prabhu S, Meng X, Li C, Yang C S. An improved method for the determination of green and black tea polyphenols in biomatrices by high-performance liquid chromatography with coulometric array detection. Anal. Biochem. 2000; 279: 164-9) and on the basis of the general knowledge of a person skilled in the art. […]

promoter of involucrin = conditions: high dose of 20 μg/mL; literature; cited from earlier work

## [Ca+2] [Ca++, calcium]
[1]; positive control, calcium 1.5 mM
  Expression of TGK (average): 1407%

## CCCCC/C=C\C/C=C\C/C=C\CCCCC(=O)O [GLA, gamma-linolenic acid]
[1]; GLA 1.25 μg/mL
  Expression of TGK (average): 250%
[1]; GLA 3.75 μg/mL
  Expression of TGK (average): 220%
[1]; at the concentrations tested (GLA 1.25 and 3.75 μg/mL; GTP 0.5 μg/mL; GLA 2.5 + GTP 0.5 μg/mL)
  expression/activation of TGK after treatment (conclusion in words): seems to be activated
[2]
  maximum concentration without loss of viability of the NHEKs: 5.00 µg/mL
[3]
  expression of involucrin after treatment alone: increased
[4]
  toxicity to the NHEKs: not toxic

## O=C(O[C@@H]1Cc2c(O)cc(O)cc2O[C@@H]1c1cc(O)c(O)c(O)c1)c1cc(O)c(O)c(O)c1 [EGCG, epigallocatechin gallate]
[5]
  concentration of the individual catechin in the serum: 0.04 to 0.33 µmol
[5]; mass units
  concentration of the individual catechin in the serum: 18 to 152 ng/mL
Promoter of involucrin
  effect on the promoter of involucrin: activation
